± gives the uncertainty stated by the source.
Assay: xn = mol fraction of the nth substance listed

CCCCCCCCCCN + C1CCCCC1
303.15 K, 101 kPa
Conditions	viscosity [mPa·s]
x2 = 0.2056	1.562 ± 0.017
x2 = 0.3987	1.361 ± 0.015
x2 = 0.5065	1.239 ± 0.014
x2 = 0.5875	1.159 ± 0.013
x2 = 0.7947	0.9708 ± 0.011

CCCN(CCC)CCC + C1CCCCC1
viscosity [mPa·s], 101 kPa
Conditions	x1 = 0.01088	x1 = 0.02001	x1 = 0.0305	x1 = 0.04057	x1 = 0.05108	x1 = 0.05957	x1 = 0.06928	x1 = 0.07872	x1 = 0.08785
303.15 K	0.8118 ± 0.0056	0.8071 ± 0.0056	0.8005 ± 0.0055	0.7936 ± 0.0055	0.7874 ± 0.0055	0.7784 ± 0.0054	0.7721 ± 0.0054	0.766 ± 0.0054	0.7599 ± 0.0054
313.15 K	0.7082 ± 0.005	0.6992 ± 0.005	0.6899 ± 0.0049	0.6808 ± 0.0049	0.673 ± 0.0049	0.6664 ± 0.0049	0.6605 ± 0.0048	0.6541 ± 0.0048	0.6465 ± 0.0048

CCCN(CCC)CCC + C1COCCO1
Conditions	viscosity [mPa·s]
303.15 K, 101 kPa, x1 = 0.0198	1.045 ± 0.0077

Cc1ccc(C(C)C)c(O)c1 + CC12CCC(CC1)C(C)(C)O2
viscosity [mPa·s], 101.33 kPa
Conditions	x1 = 0.5865	x1 = 0.6068	x1 = 0.6272	x1 = 0.6462	x1 = 0.6661	x1 = 0.6858	x1 = 0.7057
293.15 K	43.71 ± 0.94	45.56 ± 0.98	46.15 ± 0.99	46.86 ± 1	46.28 ± 1	45.95 ± 0.99	44.22 ± 0.95
298.15 K	29.92 ± 0.75	30.8 ± 0.79	31.35 ± 0.79	31.41 ± 0.81	31.27 ± 0.8	30.92 ± 0.8	29.82 ± 0.77

CCN(CC)c1ccccc1 + CC(=O)O
viscosity [mPa·s], 101 kPa
Conditions	298.15 K	318.15 K
x2 = 0.0992	2.081 ± 0.055	1.363 ± 0.036
x2 = 0.1985	2.343 ± 0.062	1.489 ± 0.04
x2 = 0.2959	2.722 ± 0.072	1.597 ± 0.043
x2 = 0.3986	3.462 ± 0.092	1.91 ± 0.051
x2 = 0.5022	4.639 ± 0.12	2.408 ± 0.065
x2 = 0.598	6.4 ± 0.17	3.1 ± 0.084
x2 = 0.7002	9.548 ± 0.25	4.198 ± 0.12
x2 = 0.7469	10.94 ± 0.29	4.721 ± 0.13
x2 = 0.7982	12 ± 0.31	5.159 ± 0.14
x2 = 0.8467	10.95 ± 0.29	4.965 ± 0.14
x2 = 0.9027	6.538 ± 0.17	3.527 ± 0.094

CCOC(=O)CC(=O)OCC + CC(=O)c1ccccc1
viscosity [mPa·s], 101 kPa
Conditions	x1 = 0.0812	x1 = 0.1401	x1 = 0.2516	x1 = 0.3486	x1 = 0.4322	x1 = 0.5248	x1 = 0.6335	x1 = 0.7384	x1 = 0.8256	x1 = 0.9278
303.15 K	1.564 ± 0.034	1.587 ± 0.034	1.626 ± 0.035	1.655 ± 0.036	1.677 ± 0.036	1.697 ± 0.037	1.714 ± 0.037	1.727 ± 0.037	1.732 ± 0.038	1.738 ± 0.038
308.15 K	1.412 ± 0.031	1.43 ± 0.031	1.461 ± 0.032	1.487 ± 0.032	1.506 ± 0.033	1.524 ± 0.033	1.54 ± 0.033	1.55 ± 0.034	1.559 ± 0.034	1.567 ± 0.034
313.15 K	1.315 ± 0.028	1.334 ± 0.029	1.363 ± 0.029	1.384 ± 0.03	1.4 ± 0.03	1.416 ± 0.031	1.43 ± 0.031	1.44 ± 0.031	1.446 ± 0.031	1.454 ± 0.031

ClCCCCl + CC(C)CO
viscosity [mPa·s], 101 kPa
Conditions	x1 = 0.0989	x1 = 0.2041	x1 = 0.3021	x1 = 0.3988	x1 = 0.5019	x1 = 0.602	x1 = 0.704	x1 = 0.8027	x1 = 0.8982
298.15 K	2.523 ± 0.021	1.948 ± 0.016	1.604 ± 0.013	1.373 ± 0.011	1.194 ± 0.0095	1.078 ± 0.0086	1.001 ± 0.008	0.9476 ± 0.0078	0.9412 ± 0.0078
313.15 K	1.637 ± 0.016	1.327 ± 0.012	1.127 ± 0.0099	1.001 ± 0.0086	0.8964 ± 0.0076	0.8306 ± 0.007	0.789 ± 0.0067	0.7599 ± 0.0064	0.7565 ± 0.0065

Cc1ccc(C(C)C)c(O)c1 + CC(C)[C@@H]1CC[C@@H](C)C[C@H]1O
Conditions	viscosity [mPa·s]
293.15 K, 100 kPa, x1 = 0.333	68.78 ± 1.9
293.15 K, 100 kPa, x1 = 0.5	54.01 ± 1.4
298 K, 101 kPa, x2 = 0.2	25.3 ± 1.1
298 K, 101 kPa, x2 = 0.25	26.8 ± 1.2
298 K, 101 kPa, x2 = 0.333	32 ± 1.4
298.15 K, 100 kPa, x1 = 0.333	43.86 ± 1.2
298.15 K, 100 kPa, x1 = 0.5	35.41 ± 0.97
303.15 K, 100 kPa, x1 = 0.333	29.46 ± 0.79
303.15 K, 100 kPa, x1 = 0.5	24.33 ± 0.64
308.15 K, 100 kPa, x1 = 0.333	20.66 ± 0.54
308.15 K, 100 kPa, x1 = 0.5	17.41 ± 0.44
313.15 K, 100 kPa, x1 = 0.333	15.01 ± 0.38
313.15 K, 100 kPa, x1 = 0.5	12.89 ± 0.32
318.15 K, 100 kPa, x1 = 0.333	11.25 ± 0.28
318.15 K, 100 kPa, x1 = 0.5	9.84 ± 0.24
323.15 K, 100 kPa, x1 = 0.333	8.69 ± 0.21
323.15 K, 100 kPa, x1 = 0.5	7.72 ± 0.18

CCCCCCCCCCCC(=O)OCC + CCC1CCCCC1
viscosity [mPa·s], 100 kPa
Conditions	x2 = 0.1001	x2 = 0.1999	x2 = 0.3	x2 = 0.3999	x2 = 0.5001	x2 = 0.5999	x2 = 0.7	x2 = 0.7999	x2 = 0.9
293.15 K	3.07 ± 0.067	2.768 ± 0.06	2.476 ± 0.054	2.193 ± 0.048	1.919 ± 0.042	1.663 ± 0.036	1.429 ± 0.031	1.219 ± 0.027	1.023 ± 0.022
298.15 K	2.752 ± 0.06	2.485 ± 0.054	2.228 ± 0.049	1.977 ± 0.043	1.742 ± 0.038	1.519 ± 0.033	1.318 ± 0.029	1.134 ± 0.025	0.963 ± 0.021
303.15 K	2.479 ± 0.054	2.251 ± 0.049	2.027 ± 0.044	1.808 ± 0.039	1.597 ± 0.035	1.402 ± 0.031	1.222 ± 0.027	1.057 ± 0.023	0.901 ± 0.02
308.15 K	2.232 ± 0.049	2.036 ± 0.044	1.841 ± 0.04	1.651 ± 0.036	1.468 ± 0.032	1.296 ± 0.028	1.131 ± 0.025	0.981 ± 0.021	0.837 ± 0.018
313.15 K	2.033 ± 0.044	1.86 ± 0.041	1.686 ± 0.037	1.516 ± 0.033	1.352 ± 0.03	1.197 ± 0.026	1.05 ± 0.023	0.913 ± 0.02	0.786 ± 0.017
318.15 K	1.87 ± 0.041	1.716 ± 0.037	1.561 ± 0.034	1.406 ± 0.031	1.258 ± 0.027	1.119 ± 0.024	0.987 ± 0.022	0.864 ± 0.019	0.745 ± 0.016
323.15 K	1.697 ± 0.037	1.562 ± 0.034	1.423 ± 0.031	1.289 ± 0.028	1.159 ± 0.025	1.036 ± 0.023	0.92 ± 0.02	0.81 ± 0.018	0.7 ± 0.015

CCOC(=O)CC(=O)OCC + CCC(=O)CC
viscosity [mPa·s], 101 kPa
Conditions	x1 = 0.0736	x1 = 0.1356	x1 = 0.2458	x1 = 0.3326	x1 = 0.4124	x1 = 0.5158	x1 = 0.6256	x1 = 0.7456	x1 = 0.8626	x1 = 0.9415
303.15 K	0.488 ± 0.011	0.535 ± 0.012	0.633 ± 0.014	0.725 ± 0.016	0.814 ± 0.018	0.94 ± 0.02	1.094 ± 0.024	1.273 ± 0.028	1.475 ± 0.032	1.627 ± 0.035
308.15 K	0.45 ± 0.01	0.493 ± 0.011	0.58 ± 0.013	0.658 ± 0.014	0.742 ± 0.016	0.859 ± 0.019	0.999 ± 0.022	1.162 ± 0.025	1.341 ± 0.029	1.478 ± 0.032
313.15 K	0.437 ± 0.009	0.477 ± 0.01	0.56 ± 0.012	0.633 ± 0.014	0.708 ± 0.015	0.812 ± 0.017	0.938 ± 0.02	1.089 ± 0.023	1.25 ± 0.027	1.375 ± 0.03
